Read-outs that look alike come from different tables or passages of the source.
Legend:
[1] = system: E. coli (EC D1-209); experiment: Antibacterial MIC, gram negative; assay type: cell-based
[2] = system: S. aureus (SA RN450); experiment: Antibacterial MIC, gram positive; assay type: cell-based
[3] = system: SMN2 mRNA; experiment: In vitro cell-free splicing assay for inclusion of exon 7; assay type: biochemical
Experimental: The following example illustrates how tetracycline compound of the invention are active in an in vitro cell-free assay for the inclusion of exon 7 in […] mRNA. SMN1 and SMN2 pre-mRNA were prepared by in vitro transcription using T7 RNA polymerase of minigene templates that include exon 6, a truncated portion of intron 6, exon 7, intron 7 and a portion of exon 8 in the presence of ^32P-UTP. Labeled RNA was purified on a denaturing polyacrylamide gel followed by phenol extraction and ethanol precipitation of the RNA.
In vitro cell-free splicing of SMN1 and SMN2 transcripts was carried out in a 10 μl reaction volume at 30° C. for 3 hours. The reactions contained 10 fmol of labeled pre-mRNA, 30% (3 VI) HeLa cell nuclear extract (in 20 mM HEPES, pH 7.4, 20% (v/v) glycerol, 0.1M KC1, 0.2 mM EDTA), 1.3% (w/v) polyvinyl alcohol, 1.56 mM MgCl2, 32 mM HEPES, pH 7.4, 0.5 mM ATP, 20 mM creatine phosphate and either 2 μl of test compound (in 20 mM HEPES, pH 7.4, 0.1M KC1, 0.2 mM EDTA) or buffer alone. Following incubation, 200 μl of a solution containing 0.3M NaAc and 0.2% SDS was added to the reaction. Proteins were removed by extraction with an equal volume of phenol and RNA was precipitated with 2.5 volumes of ethanol. RNA was resuspended in formamide sample buffer and separated on a 9% urea-denaturing polyacrylamide gel. Quantitation of splicing was based on phosphorimage analysis (Fujix BAS2000 or Fujifilm FLA-5100). In this assay, percentage exon 7 inclusion averages 12% for the unmutated SMN1 mRNA and 4% for the SMN2 mRNA.
The in vitro activities for exon 7 splicing are expressed as the Emax (the maximum percentage exon 7 inclusion observed) and Cmax (the lowest compound concentration at which the maximum inclusion occurs in μM). For Emax, percentage inclusion values of less than 10% are indicated by “*”, values of 10-20% are indicated by “**”, and values greater than 20% are indicated by “***”. For Cmax data, concentrations of greater than 40 μM are indicated by “*”, concentrations between 40 and 10 μM are represented by “**” and concentrations of less than 10 μM are represented by “***”.

[4] = CLSI methodology, 35° C., 18-24 hours
[5] = HeLa cell nuclear extract, 30° C., 3 hours

Row | Structure (SMILES) | MIC Gram Negative (EC D1-209) [1, 4] | MIC Gram Positive (SA RN450) [2, 4] | also measured
1 | CN(C)CCCNC(=O)c1ccc(-c2ccc(O)c3c2CC2CC4C(N(C)C)C(O)=C(C(N)=O)C(=O)C4(O)C(O)=C2C3=O)cc1 (stereo not shown) [AA] | * (weak antibacterial activity (greater than about 8 μg/mL)) | ** (modest antibacterial activity (between about 4 and 8 μg/mL)) | –
2 | CN(C)C1C(O)=C(C(N)=O)C(=O)C2(O)C(O)=C3C(=O)c4c(O)ccc(-c5ccccc5)c4CC3CC12 (stereo not shown) [AQ] | ** (modest antibacterial activity (between about 4 and 8 μg/mL)) | *** (Good antibacterial activity (e.g., less than about 4 μg/mL)) | –
3 | CN(C)C1C(O)=C(C(N)=O)C(=O)C2(O)C(O)=C3C(=O)c4c(O)ccc(C(=O)CNCC(N)=O)c4CC3CC12 (stereo not shown) [BZ] | – | – | MIC Gram Negative (EC D1-209) [1]: * (key: ***: Good antibacterial activity (e.g., less than about 4 μg/mL); **: modest antibacterial activity (between about 4 and 8 μg/mL); *: weak antibacterial activity (greater than about 8 μg/mL)); MIC Gram Positive (SA RN450) [2]: ** (key: ***: Good antibacterial activity (e.g., less than about 4 μg/mL); **: modest antibacterial activity (between about 4 and 8 μg/mL); *: weak antibacterial activity (greater than about 8 μg/mL))
4 | CN(C)CCCNC(=O)c1cccc(-c2cc(N(C)C)c3c(c2O)C(=O)C2=C(O)[C@]4(O)C(=O)C(C(N)=O)=C(O)[C@@H](N(C)C)[C@@H]4C[C@@H]2C3)c1 [Compound X] | * (weak antibacterial activity (greater than about 8 μg/mL)) | * (weak antibacterial activity (greater than about 8 μg/mL)) | –
5 | CN(C)C1C(O)=C(C(N)=O)C(=O)C2(O)C(O)=C3C(=O)c4c(O)ccc(C(=O)CNCC(F)(F)F)c4CC3CC12 (stereo not shown) [BT] | * (weak antibacterial activity (greater than about 8 μg/mL)) | *** (Good antibacterial activity (e.g., less than about 4 μg/mL)) | –
6 | CN(C)CCCCNCc1cccc(-c2ccc(O)c3c2CC2CC4C(N(C)C)C(O)=C(C(N)=O)C(=O)C4(O)C(O)=C2C3=O)c1 (stereo not shown) [CV] | – | – | Cmax (lowest compound concentration at which the maximum exon 7 inclusion occurs) [3, 5]: *** (concentrations of less than 10 μM); Emax (maximum percentage exon 7 inclusion observed) [3, 5]: ** (values of 10-20%)
7 | CN(C)c1cc(-c2ccc(CN3CCN(CCO)CC3)o2)c(O)c2c1C[C@H]1C[C@H]3[C@H](N(C)C)C(O)=C(C(N)=O)C(=O)[C@@]3(O)C(O)=C1C2=O [BA] | * (weak antibacterial activity (greater than about 8 μg/mL)) | *** (Good antibacterial activity (e.g., less than about 4 μg/mL)) | –
8 | CN(C)CCNCc1cccc(-c2ccc(O)c3c2CC2CC4C(N(C)C)C(O)=C(C(N)=O)C(=O)C4(O)C(O)=C2C3=O)c1 (stereo not shown) [CS] | – | – | Cmax (lowest compound concentration at which the maximum exon 7 inclusion occurs) [3]: *** (key: *: concentrations of greater than 40 μM; **: concentrations between 40 and 10 μM; ***: concentrations of less than 10 μM); Emax (maximum percentage exon 7 inclusion observed) [3]: ** (key: *: percentage inclusion values of less than 10%; **: values of 10-20%; ***: values greater than 20%)
9 | CN(C)C1C(O)=C(C(N)=O)C(=O)C2(O)C(O)=C3C(=O)c4c(O)ccc(C(=O)Cn5ccnc5)c4CC3CC12 (stereo not shown) [CF] | * (weak antibacterial activity (greater than about 8 μg/mL)) | ** (modest antibacterial activity (between about 4 and 8 μg/mL)) | –
10 | CN(C)CC(=O)Nc1ccc(-c2ccc(O)c3c2CC2CC4C(N(C)C)C(O)=C(C(N)=O)C(=O)C4(O)C(O)=C2C3=O)cc1 (stereo not shown) [BC] | *** (Good antibacterial activity (e.g., less than about 4 μg/mL)) | *** (Good antibacterial activity (e.g., less than about 4 μg/mL)) | –
11 | CN(C)CCCNCc1cccc(-c2ccc(O)c3c2CC2CC4C(N(C)C)C(O)=C(C(N)=O)C(=O)C4(O)C(O)=C2C3=O)c1 (stereo not shown) [CX] | – | – | Cmax (lowest compound concentration at which the maximum exon 7 inclusion occurs) [3]: *** (key: *: concentrations of greater than 40 μM; **: concentrations between 40 and 10 μM; ***: concentrations of less than 10 μM); Emax (maximum percentage exon 7 inclusion observed) [3]: ** (key: *: percentage inclusion values of less than 10%; **: values of 10-20%; ***: values greater than 20%)
12 | CC(C)OC(=O)c1cccc(-c2ccc(O)c3c2CC2CC4C(N(C)C)C(O)=C(C(N)=O)C(=O)C4(O)C(O)=C2C3=O)c1 (stereo not shown) [AU] | * (weak antibacterial activity (greater than about 8 μg/mL)) | *** (Good antibacterial activity (e.g., less than about 4 μg/mL)) | –
13 | CN(C)Cc1ccc(-c2ccc(O)c3c2CC2CC4C(N(C)C)C(O)=C(C(N)=O)C(=O)C4(O)C(O)=C2C3=O)[nH]1 (stereo not shown) [BK] | * (weak antibacterial activity (greater than about 8 μg/mL)) | *** (Good antibacterial activity (e.g., less than about 4 μg/mL)) | –
14 | CC1=NCCN1CC(=O)c1ccc(O)c2c1CC1CC3C(N(C)C)C(O)=C(C(N)=O)C(=O)C3(O)C(O)=C1C2=O (stereo not shown) [CH] | * (weak antibacterial activity (greater than about 8 μg/mL)) | ** (modest antibacterial activity (between about 4 and 8 μg/mL)) | –
15 | CN(C)CCc1ccc(O)c2c1CC1CC3C(N(C)C)C(O)=C(C(N)=O)C(=O)C3(O)C(O)=C1C2=O (stereo not shown) [Compound BD] | * (weak antibacterial activity (greater than about 8 μg/mL)) | *** (Good antibacterial activity (e.g., less than about 4 μg/mL)) | –
16 | COCC(=O)c1ccc(O)c2c1CC1CC3C(N(C)C)C(O)=C(C(N)=O)C(=O)C3(O)C(O)=C1C2=O (stereo not shown) [BW] | * (weak antibacterial activity (greater than about 8 μg/mL)) | *** (Good antibacterial activity (e.g., less than about 4 μg/mL)) | –
17 | CN(C)C1C(O)=C(C(N)=O)C(=O)C2(O)C(O)=C3C(=O)c4c(O)ccc(-c5cccc(C=CC#N)c5)c4CC3CC12 (stereo not shown) [CO] | – | – | Cmax (lowest compound concentration at which the maximum exon 7 inclusion occurs) [3, 5]: ** (concentrations between 40 and 10 μM); Emax (maximum percentage exon 7 inclusion observed) [3, 5]: ** (values of 10-20%)
18 | COCCCNC(=O)c1cccc(-c2ccc(O)c3c2CC2CC4C(N(C)C)C(O)=C(C(N)=O)C(=O)C4(O)C(O)=C2C3=O)c1 (stereo not shown) [CQ] | – | – | Cmax (lowest compound concentration at which the maximum exon 7 inclusion occurs) [3, 5]: * (concentrations of greater than 40 μM); Emax (maximum percentage exon 7 inclusion observed) [3, 5]: ** (values of 10-20%)
19 | CN(C)CCCN(C)Cc1cccc(-c2ccc(O)c3c2C[C@H]2C[C@H]4[C@H](N(C)C)C(O)=C(C(N)=O)C(=O)[C@@]4(O)C(O)=C2C3=O)c1 [Compound CU, (4S,4aS,5aR,12aS)-4-Dimethylamino-7-(3-{[(3-dimethylamino-propyl)-methyl-amino]-methyl}-phenyl)-3,10,12,12a-tetrahydroxy-1,11-dioxo-1,4,4a,5,5a,6,11,12a-octahydro-naphthacene-2-carboxylic Acid Amide] | – | – | Cmax (lowest compound concentration at which the maximum exon 7 inclusion occurs) [3, 5]: *** (concentrations of less than 10 μM); Emax (maximum percentage exon 7 inclusion observed) [3, 5]: ** (values of 10-20%)
20 | CN(C)C1C(O)=C(C(N)=O)C(=O)C2(O)C(O)=C3C(=O)c4c(O)ccc(-c5cccc(C(=O)NCCN6CCCC6)c5)c4CC3CC12 (stereo not shown) [CR] | – | – | Cmax (lowest compound concentration at which the maximum exon 7 inclusion occurs) [3]: ** (key: *: concentrations of greater than 40 μM; **: concentrations between 40 and 10 μM; ***: concentrations of less than 10 μM); Emax (maximum percentage exon 7 inclusion observed) [3]: *** (key: *: percentage inclusion values of less than 10%; **: values of 10-20%; ***: values greater than 20%)
21 | CN(C)CCN(C)Cc1cccc(-c2ccc(O)c3c2CC2CC4C(N(C)C)C(O)=C(C(N)=O)C(=O)C4(O)C(O)=C2C3=O)c1 (stereo not shown) [CT] | – | – | Cmax (lowest compound concentration at which the maximum exon 7 inclusion occurs) [3]: ** (concentrations between 40 and 10 μM); Emax (maximum percentage exon 7 inclusion observed) [3]: ** (values of 10-20%)
22 | CN(C)C1C(O)=C(C(N)=O)C(=O)C2(O)C(O)=C3C(=O)c4c(O)ccc(-c5cccc(C(=O)NCCN6CCOCC6)c5)c4CC3CC12 (stereo not shown) [CP] | – | – | Cmax (lowest compound concentration at which the maximum exon 7 inclusion occurs) [3, 5]: ** (concentrations between 40 and 10 μM); Emax (maximum percentage exon 7 inclusion observed) [3, 5]: *** (values greater than 20%)
23 | CN(C)CCCCN(C)Cc1cccc(-c2ccc(O)c3c2CC2CC4C(N(C)C)C(O)=C(C(N)=O)C(=O)C4(O)C(O)=C2C3=O)c1 (stereo not shown) [CW] | – | – | Cmax (lowest compound concentration at which the maximum exon 7 inclusion occurs) [3, 5]: *** (concentrations of less than 10 μM); Emax (maximum percentage exon 7 inclusion observed) [3, 5]: ** (values of 10-20%)
